# Experiments:
# [1] = system: animal model of irritable bowel syndrome (wrap-restraint stress); assay: wrap-restraint stress irritable bowel syndrome model, amount of feces excreted; format: in vivo, Wistar male rats; conditions: oral, 40 minutes before wrap-restraint stress; lysine hydrochloride 1 g/kg, alprazolam 10 mg/kg; vs control
# Method: An animal model of irritable bowel syndrome was prepared according to the method as described by Williams et al. (Williams, C. L., Villar, R. G., Peterson, J. M., Burks, T. F., “Stress-induced changes in intestinal transit in the rat: a model for irritable bowel syndrome,” Gastroenterol., vol. 94, pp. 611-621 (1988)). That is, a cotton tape was placed around the anterior limbs of seven-week-old Wistar male rats, the rats were kept in a bracket cage, and then the amount of feces excreted during 2 hours was measured. A test compound was orally administered 40 minutes before starting the wrap-restraint stress. The following groups were examined: 1) control group; 2) a group to which lysine hydrochloride (1 g/kg) alone was given; 3) a group to which a minor tranquilizer alprazolam (10 mg/kg; Takeda Chem. Ind.) alone was given; and 4) a combination group to which lysine hydrochloride (1 g/kg) and alprazolam (10 mg/kg) were given. Each group consisted of 10 animals.
# [2] = system: model for gastric ulcer caused by water immersion under restraint; assay: water-immersion restraint stress gastric ulcer model, intragastric hemorrhage; format: in vivo, Wistar male rats; conditions: in powdered feed; paroxetine 298 mg/kg diet, lysine hydrochloride 13.3 g/kg diet, arginine 13.3 g/kg diet; water-immersion restraint stress 5 hours
# Method: A widely used model for gastric ulcer caused by water immersion under restraint was used. That is, rats were placed in a stress cage and immersed in water to the chest for 5 hours (at a temperature of 22-25° C.). The stomach was removed and the degree of intragastric hemorrhage was observed and the hemorrhage area was calculated using an NHI image software.
# The test compound was evaluated as follows. Five-week-old Wistar male rats were divided into three groups. The first group was bred with a normal powdered feed; the second group with a powdered feed to which was added a selective serotonin reuptake inhibitor (SSRI) (paroxetine; Glaxo-SmithKline; 298 mg/kg diet) alone; and the third group with a powdered feed containing the same amount of the same SSRI and lysine hydrochloride (13.3 g/kg diet) to which was additionally added arginine (13.3 g/kg diet). Each group consisted of 10 animals. Rats could freely feed before they reached 14 weeks of age. Thereafter, no feed and water were given for 2 days, and on day 3, all of the rats were subjected to the water-immersion restraint stress for 5 hours.
Compound,effect on stress-induced increase of amount of feces excreted during 2 hours [1],intragastric hemorrhage (hemorrhage area) [2]
Cl.NCCCC[C@H](N)C(=O)O [lysine hydrochloride],no clear effect was observed,
"Fc1ccc([C@@H]2CCNC[C@H]2COc2ccc3c(c2)OCO3)cc1 [SSRI, paroxetine]",,significantly exacerbated the intragastric hemorrhage
Cc1nnc2n1-c1ccc(Cl)cc1C(c1ccccc1)=NC2 [alprazolam],no clear effect was observed,
